Test results as given in US20150105252A1, “SUBSTITUTED PYRAZOLES AS HERBICIDES” (E I DU PONT DE NEMOURS AND COMPANY, priority 2013, published 2015).

Experiments:
barnyardgrass [1] = assay: Test A preemergence; type: in vivo, Echinochloa crus-galli; details: preemergence
Summary of the method: (§1)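 Greenhouse test in loam soil/sand blend; compounds formulated in non-phytotoxic solvent with surfactant, applied as preemergence directed soil spray or postemergence to plants 2–10 cm tall at one- to two-leaf stage. Injury rated visually versus untreated controls after approximately 10 days on a 0 (no effect) to 100 (complete control) scale.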

foxtail, giant = assay: Test A preemergence; type: in vivo, Setaria faberii; details: preemergence
Summary of the method: as §1

pigweed = assay: Test A preemergence; type: in vivo, Amaranthus retroflexus; details: preemergence
Summary of the method: as §1

velvetleaf = assay: Test A preemergence; type: in vivo, Abutilon theophrasti; details: preemergence
Summary of the method: as §1

corn [2] = assay: Test A preemergence; type: in vivo, Zea mays; details: preemergence
Summary of the method: as §1

wheat = assay: Test A postemergence; type: in vivo, Triticum aestivum
Summary of the method: as §1

sedge, umbrella = assay: Test B flood; type: in vivo, Cyperus difformis; details: 250 g ai/ha, visual rating on 0 to 100 scale (0 no effect, 100 complete control), 13 to 15 days
Summary of the method: (§2)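 Each compound is applied to the floodwater of pots holding 2-leaf seedlings, water standing 3 cm over the soil throughout. Plants stay in a greenhouse 13 to 15 days before visual scoring against controls from 0 (no effect) to 100 (complete control).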

ducksalad = assay: Test B flood; type: in vivo, Heteranthera limosa; details: 250 g ai/ha, visual rating on 0 to 100 scale (0 no effect, 100 complete control), 13 to 15 days
Summary of the method: as §2

galium [3] = assay: Test C preemergence; type: in vivo, Galium aparine; details: for Galium plant response rating / Plant response rating, Galium: preemergence; for Plant response rating, Galium: 125 g ai/ha, scale 0 to 100, 0 = no effect, 100 = complete control
Summary of the method: (§3)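 In this greenhouse assay, seeded soil (loam plus sand) or emerged seedlings in peat-vermiculite medium were treated with formulated compound. Roughly two weeks later (13–15 days), each species was scored visually relative to controls, from 0 for no effect to 100 for complete control.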

corn [4] = assay: Test C preemergence; type: in vivo, Zea mays; details: for Corn plant response rating / Plant response rating, Corn: preemergence; for Plant response rating, Corn: 125 g ai/ha, scale 0 to 100, 0 = no effect, 100 = complete control
Summary of the method: as §3

morningglory = assay: Test C preemergence; type: in vivo, Ipomoea coccinea; details: for Morningglory plant response rating / Plant response rating, Morningglory: preemergence; for Plant response rating, Morningglory: 125 g ai/ha, scale 0 to 100, 0 = no effect, 100 = complete control
Summary of the method: as §3

barnyardgrass [5] = assay: Test C preemergence; type: in vivo, Echinochloa crus-galli; details: for Barnyardgrass plant response rating / Plant response rating, Barnyardgrass: preemergence; for Plant response rating, Barnyardgrass: 125 g ai/ha, scale 0 to 100, 0 = no effect, 100 = complete control
Summary of the method: as §3

blackgrass = assay: Test C postemergence; type: in vivo, Alopecurus myosuroides; details: for Plant response rating (scale of 0 to 100 where 0 is no effect and 100 is complete control), Blackgrass: Postemergence, 31 g ai/ha, visually evaluated after 13 to 15 days; for Blackgrass plant response rating / Plant response rating, Blackgrass: postemergence; for Blackgrass plant response rating: 62 g ai/ha, scale 0 to 100
Summary of the method: as §3

galium [6] = assay: Test C postemergence; type: in vivo, Galium aparine; details: for Plant response rating (scale of 0 to 100 where 0 is no effect and 100 is complete control), Galium: Postemergence, 31 g ai/ha, visually evaluated after 13 to 15 days; for Galium plant response rating / Plant response rating, Galium: postemergence; for Galium plant response rating: 62 g ai/ha, scale 0 to 100
Summary of the method: as §3

oilseed rape = assay: Test C postemergence; type: in vivo, Brassica napus; details: for Oilseed Rape plant response rating / Plant response rating, Oilseed Rape: postemergence; for Oilseed Rape plant response rating: 62 g ai/ha, scale 0 to 100
Summary of the method: as §3

[7] = 125 g ai/ha, visual injury, 0 to 100 scale, approx. 10 days
[8] = 500 g ai/ha, visual injury after approx. 10 days, 0 to 100 scale (0 no effect, 100 complete control)
[9] = Postemergence, 500 g ai/ha, 0 to 100 scale (0 no effect, 100 complete control)
[10] = postemergence, 125 g ai/ha, about 10 days, visual rating on 0 to 100 scale (0 no effect, 100 complete control)
[11] = 31 g ai/ha, visual rating, scale 0 to 100 (0 no effect, 100 complete control), 13 to 15 days
[12] = 62 g ai/ha, scale 0 to 100 (0 no effect, 100 complete control), 13 to 15 days
[13] = 250 g ai/ha, scale 0 to 100 (0 no effect, 100 complete control)
[14] = 125 g ai/ha, scale 0 to 100, 0 no effect, 100 complete control
[15] = 125 g ai/ha, visual injury approx. 10 days after treatment
[16] = 250 g ai/ha, scale 0 to 100, 0 is no effect, 100 is complete control

CCONC(=O)c1cc(CC)n(Cc2ccnc(OC(F)F)c2)n1 [Compound 131]
Barnyardgrass plant response rating (barnyardgrass [1]; [7]): 100 | Barnyardgrass plant response rating (barnyardgrass [1]; [8]): 100 | Foxtail, Giant plant response rating (foxtail, giant; [7]): 90 | Foxtail, Giant plant response rating (foxtail, giant; [8]): 100 | Pigweed plant response rating (pigweed; [7]): 100 | Pigweed plant response rating (pigweed; [8]): 100 | Velvetleaf plant response rating (velvetleaf; [7]): 90 | Velvetleaf plant response rating (velvetleaf; [8]): 100 | Corn plant response rating (corn [2]; [7]): 60 | Corn plant response rating (corn [2]; [8]): 90 | Wheat plant response rating (wheat; [9]): 90 | Wheat plant response rating (wheat; [10]): 80 | Plant response rating, Sedge, Umbrella (sedge, umbrella): 90 | Plant response rating, Ducksalad (ducksalad): 90 | Plant response rating (scale of 0 to 100), Galium (galium [3]; Preemergence, 250 g ai/ha): 98 | Galium plant response rating (galium [3]; [11]): 55 | Galium plant response rating (galium [3]; [12]): 75 | Plant response rating, Galium (galium [3]; 13 to 15 days): 75 | Plant response rating (scale of 0 to 100), Corn (corn [4]; Preemergence, 250 g ai/ha): 98 | Corn plant response rating (corn [4]; [11]): 40 | Corn plant response rating (corn [4]; [12]): 90 | Plant response rating, Corn (corn [4]; 13 to 15 days): 95 | Plant response rating (scale of 0 to 100), Morningglory (morningglory; Preemergence, 250 g ai/ha): 100 | Morningglory plant response rating (morningglory; [11]): 40 | Morningglory plant response rating (morningglory; [12]): 100 | Plant response rating, Morningglory (morningglory; 13 to 15 days): 100 | Plant response rating (scale of 0 to 100), Barnyardgrass (barnyardgrass [5]; Preemergence, 250 g ai/ha): 100 | Barnyardgrass plant response rating (barnyardgrass [5]; 31 g ai/ha, scale 0 to 100 (0 no effect, 100 complete control), 13 to 15 days): 55 | Barnyardgrass plant response rating (barnyardgrass [5]; [12]): 95 | Plant response rating, Barnyardgrass (barnyardgrass [5]; 13 to 15 days): 100 | Plant response rating (scale of 0 to 100 where 0 is no effect and 100 is complete control), Blackgrass (blackgrass): 5 | Blackgrass plant response rating (blackgrass): 5 | Plant response rating, Blackgrass (blackgrass; [13]): 20 | Plant response rating, Blackgrass (blackgrass; [14]): 10 | Plant response rating (scale of 0 to 100 where 0 is no effect and 100 is complete control), Galium (galium [6]): 45 | Galium plant response rating (galium [6]): 55 | Plant response rating, Galium (galium [6]; [13]): 70 | Plant response rating, Galium (galium [6]; [14]): 50 | Plant response rating (scale of 0 to 100 where 0 is no effect and 100 is complete control), Oilseed Rape (oilseed rape; Postemergence, 31 g ai/ha, visually evaluated after 13 to 15 days): 30 | Oilseed Rape plant response rating (oilseed rape): 35 | Plant response rating, Oilseed Rape (oilseed rape; [13]): 60 | Plant response rating, Oilseed Rape (oilseed rape; [14]): 40

CCCNC(=O)c1cc(CCF)n(Cc2ccnc(C(F)(F)F)c2)n1 [Compound 177]
Barnyardgrass plant response rating (0 to 100 scale, 0 is no effect, 100 is complete control) (barnyardgrass [1]; [15]): 100 | Barnyardgrass plant response rating (barnyardgrass [1]; [8]): 100 | Foxtail, Giant plant response rating (0 to 100 scale) (foxtail, giant; [15]): 100 | Foxtail, Giant plant response rating (foxtail, giant; [8]): 100 | Pigweed plant response rating (0 to 100 scale) (pigweed; [15]): 100 | Pigweed plant response rating (pigweed; [8]): 100 | Velvetleaf plant response rating (0 to 100 scale) (velvetleaf; [15]): 40 | Velvetleaf plant response rating (velvetleaf; [8]): 100 | Corn plant response rating (0 to 100 scale) (corn [2]; [15]): 80 | Corn plant response rating (corn [2]; [8]): 90 | Wheat plant response rating (wheat; [9]): 100 | Wheat plant response rating (wheat; [10]): 50 | Plant response rating, Sedge, Umbrella (sedge, umbrella): 95 | Plant response rating, Ducksalad (ducksalad): 95 | Galium plant response rating (galium [3]; [11]): 100 | Galium plant response rating (galium [3]; [12]): 100 | Plant response rating, Galium (galium [3]; 13 to 15 days): 100 | Galium plant response rating (galium [3]; [16]): 100 | Corn plant response rating (corn [4]; [11]): 5 | Corn plant response rating (corn [4]; [12]): 40 | Plant response rating, Corn (corn [4]; 13 to 15 days): 90 | Corn plant response rating (corn [4]; [16]): 98 | Morningglory plant response rating (morningglory; [11]): 25 | Morningglory plant response rating (morningglory; [12]): 95 | Plant response rating, Morningglory (morningglory; 13 to 15 days): 100 | Morningglory plant response rating (morningglory; [16]): 100 | Barnyardgrass plant response rating (barnyardgrass [5]; [11]): 65 | Barnyardgrass plant response rating (barnyardgrass [5]; [12]): 100 | Plant response rating, Barnyardgrass (barnyardgrass [5]; 13 to 15 days): 100 | Barnyardgrass plant response rating (barnyardgrass [5]; [16]): 100 | Plant response rating (scale of 0 to 100 where 0 is no effect and 100 is complete control), Blackgrass (blackgrass): 20 | Blackgrass plant response rating (blackgrass): 15 | Plant response rating, Blackgrass (blackgrass; [13]): 35 | Plant response rating, Blackgrass (blackgrass; [14]): 20 | Plant response rating (scale of 0 to 100 where 0 is no effect and 100 is complete control), Galium (galium [6]): 50 | Galium plant response rating (galium [6]): 50 | Plant response rating, Galium (galium [6]; [13]): 90 | Plant response rating, Galium (galium [6]; [14]): 80 | Oilseed Rape plant response rating (oilseed rape): 50 | Plant response rating, Oilseed Rape (oilseed rape; [13]): 70 | Plant response rating, Oilseed Rape (oilseed rape; [14]): 60
